Some test systems named below: OVCAR-5; COLO 205; HT-29; RXF 393; BT-549; DU-145; SR; OVCAR-4; IGROV-1; HL-60; HOP-92; KM12; SK-MEL-5; PC-3; MDA-MB-435; SK-MEL-28; Hs-578T; RPMI-8226; A498; SF-268.
What all share (assay): DTP human tumour cell line panel, 48 h

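Five concentrations, 48 hours, 96-well plates. Abbreviation: GI50, concentration required for 50% inhibition of growth.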 Active and inactive are the calls of the source. Rule as the data show it: active = GI50 up to about 1.1 µM and inactive = higher. Bounds are passed on as bounds.

On to `O=C(O)c1ccc(C(=O)Nc2cccc3ccccc23)c(C(=O)O)c1`, for which the GI50 with OVCAR-5, with COLO 205, with HT-29, in the experiment on RXF 393, with BT-549 and with DU-145 was > 100000 nM (inactive) in each case. Also, the GI50 in the experiment with SR, with OVCAR-4, in the experiment with IGROV-1, in the experiment with HL-60, in the experiment with HOP-92 and with KM12 was > 100000 nM (inactive) each time. The GI50 with SK-MEL-5, in the experiment with PC-3, in the experiment with MDA-MB-435, with SK-MEL-28, in the experiment with Hs-578T and in the experiment with RPMI-8226 was > 100000 nM (inactive) each time. The GI50 in the experiment on A498 and in the experiment with SF-268 was > 100000 nM (inactive) throughout.

For `OC1COC(OCc2ccccc2)C(O)C1O` (stereo not given), the GI50 in the experiment on OVCAR-5, in the experiment with COLO 205, in the experiment on HT-29, in the experiment with RXF 393, with BT-549 and in the experiment on DU-145 was > 100000 nM (inactive) throughout. Moreover, the GI50 in the experiment on SR, in the experiment with OVCAR-4, with IGROV-1, in the experiment with HL-60, with HOP-92 and in the experiment on KM12 was > 100000 nM (inactive) in each case. The GI50 in the experiment with SK-MEL-5, in the experiment on PC-3, in the experiment on MDA-MB-435, with SK-MEL-28, in the experiment on Hs-578T and in the experiment with RPMI-8226 was > 100000 nM (inactive) each time. For the same compound, the GI50 with A498 and in the experiment with SF-268 was > 100000 nM (inactive) in each case.

Take `COc1ccccc1C1C2=C(COC2=O)Oc2cc3c(cc21)OCO3` (stereo not given): the GI50 (in general, the concentration at which growth is held to half of that of the control) with OVCAR-5 was 11000 nM (inactive); in the experiment on COLO 205, 1780 nM (inactive); with HT-29 it was 1650 nM (inactive); in the experiment on RXF 393, 1690 nM (inactive); in the experiment on BT-549 it was 66200 nM (inactive); with DU-145, 3390 nM (inactive). Further, the GI50 in the experiment on SR is 792 nM (active); with OVCAR-4 it was 11700 nM (inactive); with IGROV-1 it was 2530 nM (inactive); with HL-60, 440 nM (active); in the experiment on HOP-92, 8300 nM (inactive); with KM12, 1330 nM (inactive). Further, the GI50 is 1930 nM (inactive) in the experiment with SK-MEL-5; 2120 nM (inactive) in the experiment on PC-3; 249 nM (active) in the experiment with MDA-MB-435; 4730 nM (inactive) in the experiment on SK-MEL-28; 2220 nM (inactive) in the experiment on Hs-578T; 3270 nM (inactive) with RPMI-8226. Also, the figures for the GI50 in the experiment on A498 and in the experiment with SF-268 were 2230 nM (inactive) and 4880 nM (inactive), respectively.

Regarding `COC(=O)C1(C)CC2C(C)(CCC3(C)C4=CC=C5C(=CC(=O)C(O)=C5C)C4(C)CCC23C)CC1O` (stereo not given), the GI50 in the experiment on OVCAR-5 is 1730 nM (inactive); with COLO 205 it was 627 nM (active); in the experiment on HT-29, 634 nM (active); with RXF 393, 429 nM (active); with BT-549 it was 851 nM (active); with DU-145, 1360 nM (inactive). Further, the GI50 in the experiment on SR was 203 nM (active); in the experiment on OVCAR-4 it was 1610 nM (inactive); in the experiment on IGROV-1, 331 nM (active); in the experiment with HL-60, 216 nM (active); with HOP-92, 635 nM (active); with KM12, 1570 nM (inactive). Besides, the GI50 in the experiment with SK-MEL-5 is 1660 nM (inactive); in the experiment on PC-3 it was 1130 nM (inactive); in the experiment with MDA-MB-435, 942 nM (active); with SK-MEL-28, 521 nM (active); with Hs-578T, 1070 nM (active); in the experiment on RPMI-8226, 283 nM (active). Further, the GI50 in the experiment with A498 is 1930 nM (inactive); in the experiment on SF-268, 863 nM (active).

As to `O=CC(=C(I)I)c1ccccc1`, the GI50 in the experiment on OVCAR-5 was 6750 nM (inactive); in the experiment on COLO 205 it was 2510 nM (inactive); with HT-29, 3040 nM (inactive); in the experiment with RXF 393, 1880 nM (inactive); in the experiment with BT-549 it was 4380 nM (inactive); with DU-145 it was 7450 nM (inactive). For the same compound, the GI50 in the experiment on SR is 197 nM (active); in the experiment with OVCAR-4, 2030 nM (inactive); in the experiment with IGROV-1, 4060 nM (inactive); with HL-60, 63.5 nM (active); in the experiment with HOP-92, 2570 nM (inactive); in the experiment with KM12 it was 3870 nM (inactive). Further, the GI50 was 4070 nM (inactive) with SK-MEL-5; 3700 nM (inactive) in the experiment with PC-3; 2070 nM (inactive) in the experiment with MDA-MB-435; 2640 nM (inactive) in the experiment on SK-MEL-28; 2830 nM (inactive) with Hs-578T; 977 nM (active) in the experiment with RPMI-8226. Further, the GI50 was 21600 nM (inactive) in the experiment on A498 and 2250 nM (inactive) in the experiment on SF-268.

Turning to `COc1cc(C2c3cc4c(cc3OC(NCCO)C2C)OCO4)cc(OC)c1OC` (stereo not given), the GI50 with OVCAR-5 was 7480 nM (inactive); in the experiment with COLO 205 it was 526 nM (active); in the experiment on HT-29 it was 369 nM (active); with RXF 393, 426 nM (active); with BT-549, 3660 nM (inactive); in the experiment on DU-145, 678 nM (active). Besides, the GI50 was 248 nM (active) with SR; 12700 nM (inactive) in the experiment with OVCAR-4; 687 nM (active) with IGROV-1; 309 nM (active) in the experiment on HL-60; 188 nM (active) with HOP-92; 382 nM (active) with KM12. In addition, the GI50 with SK-MEL-5 is 323 nM (active); in the experiment on PC-3 it was 418 nM (active); with MDA-MB-435, 92.7 nM (active); with SK-MEL-28, 713 nM (active); in the experiment with Hs-578T, 325 nM (active); in the experiment on RPMI-8226 it was 389 nM (active). The results for the GI50 in the experiment on A498 and with SF-268 were 325 nM (active) and 2050 nM (inactive), respectively.

`COc1c(CC=C(C)C)c(O)c(C(CC(C)C)c2c(O)c(CC=C(C)C)c(O)c(C(C)=O)c2O)c(O)c1C(C)=O` (stereo not given): the GI50 in the experiment with OVCAR-5 is 4900 nM (inactive); in the experiment with COLO 205, 564 nM (active); in the experiment on HT-29, 723 nM (active); with RXF 393, 427 nM (active); with BT-549, 1620 nM (inactive); in the experiment with DU-145, 2320 nM (inactive). The GI50 in the experiment on SR was 1100 nM (active); in the experiment on OVCAR-4, 1440 nM (inactive); in the experiment with IGROV-1 it was 1700 nM (inactive); in the experiment on HL-60 it was 767 nM (active); in the experiment with HOP-92, 191 nM (active); in the experiment on KM12 it was 998 nM (active). For the same compound, the GI50 in the experiment on SK-MEL-5 was 482 nM (active); in the experiment with PC-3, 305 nM (active); in the experiment with MDA-MB-435, 1940 nM (inactive); in the experiment with SK-MEL-28, 695 nM (active); with Hs-578T, 1070 nM (active); in the experiment on RPMI-8226, 419 nM (active). Moreover, the GI50 was 84.3 nM (active) in the experiment with A498 and 323 nM (active) in the experiment on SF-268.
